These results are taken from patent US11497751B2, “Modulators of Rho-associated protein kinase” (Redx Pharma PLC, priority 2018, dated 2022).

Structures can show the parent of a compound that is named as a salt.

For this test, the target named is T1, N-terminal 6His-tagged ROCK2 catalytic domain 11-552 (Homo sapiens, UniProt O75116).
T1 construct: N-terminal 6His-tagged ROCK2 catalytic domain 11-552; 6His (N); purchased Dundee University, UK; host or cells: baculovirus expression system
T1 sequence (O75116 11-552): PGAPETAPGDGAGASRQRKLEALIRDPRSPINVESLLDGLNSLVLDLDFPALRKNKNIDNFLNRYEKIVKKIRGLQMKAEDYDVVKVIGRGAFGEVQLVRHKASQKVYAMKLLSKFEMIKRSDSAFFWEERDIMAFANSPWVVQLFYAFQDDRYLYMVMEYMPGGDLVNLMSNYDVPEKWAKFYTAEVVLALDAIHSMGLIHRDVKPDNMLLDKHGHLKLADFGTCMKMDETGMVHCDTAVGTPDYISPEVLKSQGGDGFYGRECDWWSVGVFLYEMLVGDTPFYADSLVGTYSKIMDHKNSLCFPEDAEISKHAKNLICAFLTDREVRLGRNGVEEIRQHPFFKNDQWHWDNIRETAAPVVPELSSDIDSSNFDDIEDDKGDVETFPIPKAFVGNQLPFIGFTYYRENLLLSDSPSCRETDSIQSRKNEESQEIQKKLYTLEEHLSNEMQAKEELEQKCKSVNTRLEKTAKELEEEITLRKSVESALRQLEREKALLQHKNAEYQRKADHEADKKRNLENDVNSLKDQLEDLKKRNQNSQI
In words: ROCK2 binding activity: ROCK2 inhibition, ADP-Glo Kinase Assay. Conditions: 1.25 nM ROCK2, 100 μM long S6 peptide, 20 μM ATP; 1 hour pre-incubation; read-out: ADP-Glo kinase activity assay ROCK2 Category. It counts as biochemical. In a few lines:
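1.25 nM baculovirus-expressed ROCK2 pre-incubated 1 h with compound (1% DMSO), then 100 μM long S6 peptide and 20 μM ATP added for 1 h; 50 mM HEPES pH 7.5, 10 mM Mg acetate, 1 mM DTT. ADP-Glo luminescence; IC50 from four-parameter logistic fit.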
Consider `COc1cc(-c2nc(Nc3ccc4[nH]ncc4c3Cl)n(C)n2)ccc1C(=O)N1CCCC1` [Example 197], for which the IC50 lay in the range of 0.3 to 3 µM.

On to `COc1cc(-c2nc(Nc3ccc4[nH]ncc4c3Cl)n(C)n2)ccc1C(=O)NC1(CO)CC1` [Example 198], for which the IC50 is < 0.3 µM.

For the compound `COc1cc(-c2nc(Nc3ccc4[nH]ncc4c3Cl)n(C)n2)ccc1C(=O)NC#N` [Example 199], the IC50 fell in the range of 0.3 to 3 µM.

Regarding `COc1cc(-c2nc(Nc3ccc4[nH]ncc4c3Cl)n(C)n2)ccc1C(=O)NC1CCS(=O)(=O)C1` (centres unmarked) [Example 200], the IC50 is < 0.3 µM.

With `COc1cc(-c2nc(Nc3ccc4[nH]ncc4c3Cl)n(C)n2)ccc1C(=O)NCC(F)(F)F` [Example 201], the IC50 was < 0.3 µM.

Turning to `COc1cc(-c2nc(Nc3ccc4[nH]ncc4c3Cl)n(C)n2)ccc1C(=O)NC1CCN(C)C1` (centres unmarked) [Example 202], the IC50 was < 0.3 µM.

With `COc1cc(-c2nc(Nc3ccc4[nH]ncc4c3Cl)n(C)n2)ccc1C(N)=O` [Example 203], the IC50 was < 0.3 µM.

As for `COc1cc(-c2nc(Nc3ccc4[nH]ncc4c3Cl)n(C)n2)ccc1OCC(=O)NC(C)(C)C` [Example 204, N-tert-butyl-2-[4-[5-[(4-chloro-1H-indazol-5-yl)amino]-1-methyl-1,2,4-triazol-3-yl]-2-methoxy-phenoxy]acetamide], the IC50 was < 0.3 µM.

In the case of `COc1cc(-c2nc(Nc3ccc4[nH]ncc4c3Cl)n(C)n2)ccc1OCC(=O)NC(C)(C)CO` [Example 205], the IC50 is < 0.3 µM.

For `COc1cc(-c2nc(Nc3ccc4[nH]ncc4c3Cl)n(C)n2)ccc1OCC(=O)NCC(C)O` (centres unmarked) [Example 206], the IC50 was < 0.3 µM.

With `COc1cc(-c2nc(Nc3ccc4[nH]ncc4c3Cl)n(C)n2)ccc1OCC(=O)NCC(C)(C)O` [Example 207], the IC50 is < 0.3 µM.

For `COc1cc(-c2nc(Nc3ccc4[nH]ncc4c3Cl)n(C)n2)ccc1OCC(=O)NC(C)CO` (centres unmarked) [Example 208], the IC50 was < 0.3 µM.

For the compound `COc1cc(-c2nc(Nc3ccc4[nH]ncc4c3Cl)n(C)n2)ccc1OCC(=O)NCC1(O)CC1` [Example 209], the IC50 was < 0.3 µM.

As for `COc1cc(-c2nc(Nc3ccc4[nH]ncc4c3Cl)n(C)n2)ccc1OCC(=O)NC(C)C(F)(F)F` (centres unmarked) [Example 210], the IC50 is < 0.3 µM.

Regarding `COc1cc(-c2nc(Nc3ccc4[nH]ncc4c3Cl)n(C)n2)ccc1OCC(=O)NC1(CO)CC1` [Example 211], the IC50 is < 0.3 µM.

Regarding `COc1cc(-c2nc(Nc3ccc4[nH]ncc4c3Cl)n(C)n2)ccc1OCC(=O)NC1CCC(O)CC1` (centres unmarked) [Example 212], the IC50 is < 0.3 µM.

For `COc1cc(-c2nc(Nc3ccc4[nH]ncc4c3Cl)n(C)n2)ccc1OCC(=O)N[C@@H]1CCCC[C@H]1O` [Example 213], the IC50 was < 0.3 µM.

For the compound `COc1cc(-c2nc(Nc3ccc4[nH]ncc4c3Cl)n(C)n2)ccc1OCC(=O)NC1CC(O)C1` (centres unmarked) [Example 214], the IC50 is < 0.3 µM.

Regarding `COc1cc(-c2nc(Nc3ccc4[nH]ncc4c3Cl)n(C)n2)ccc1OCC(=O)NC(C)c1ccccn1` (centres unmarked) [Example 215], the IC50 is < 0.3 µM.

With `COc1cc(-c2nc(Nc3ccc4[nH]ncc4c3Cl)n(C)n2)ccc1OCC(=O)NC(C)c1cccnc1` (centres unmarked) [Example 216], the IC50 is < 0.3 µM.

In the case of `COc1cc(-c2nc(Nc3ccc4[nH]ncc4c3Cl)n(C)n2)ccc1OCC(=O)NC1CCCC1` [Example 217], the IC50 was < 0.3 µM.

`COc1cc(-c2nc(Nc3ccc4[nH]ncc4c3Cl)n(C)n2)ccc1OCC(=O)N[C@@H](C)C(F)(F)F` [Example 218]: the IC50 was < 0.3 µM.

Turning to `COc1cc(-c2nc(Nc3ccc4[nH]ncc4c3Cl)n(C)n2)ccc1OCC(=O)N[C@H](C)C(F)(F)F` [Example 219], the IC50 is < 0.3 µM.

Take `CS(=O)(=O)NCCOc1ccc(-c2nnc(Nc3ccc4[nH]ncc4c3)[nH]2)cc1` [Example 220, N-[2-[4-[5-(1H-Indazol-5-ylamino)-4H-1,2,4-triazol-3-yl]phenoxy]ethyl]methanesulfonamide]: the IC50 is 0.3 to 3 µM.

On to `CC(=O)NCCOc1ccc(-c2nnc(Nc3ccc4[nH]ncc4c3)[nH]2)cc1` [Example 221], for which the IC50 was in the range of 0.3 to 3 µM.

As to `c1ccc(NCCOc2ccc(-c3nnc(Nc4ccc5[nH]ncc5c4)[nH]3)cc2)nc1` [Example 222], the IC50 was < 0.3 µM.

Turning to `CC(C)CC(=O)NCCOc1ccc(-c2nnc(Nc3ccc4[nH]ncc4c3)[nH]2)cc1` [Example 223], the IC50 lay within 3 to 10 µM.

For `CC(C)NC(=O)NCCOc1ccc(-c2nnc(Nc3ccc4[nH]ncc4c3)[nH]2)cc1` [Example 224, 1-[2-[4-[5-(1H-indazol-5-ylamino)-4H-1,2,4-triazol-3-yl]phenoxy]ethyl]-3-isopropyl-urea dihydrochloride], the IC50 was < 0.3 µM.

Regarding `O=C(NCCOc1ccc(-c2nnc(Nc3ccc4[nH]ncc4c3)[nH]2)cc1)N1CCCC1` [Example 225], the IC50 lay in the range of 0.3 to 3 µM.

For `CC(C)NS(=O)(=O)COc1ccc(-c2n[nH]c(Nc3ccc4[nH]ncc4c3)n2)cc1` [Example 226, 1-[4-[5-(1H-indazol-5-ylamino)-4H-1,2,4-triazol-3-yl]phenoxy]-N-isopropyl-methanesulfonamide], the IC50 is < 0.3 µM.

Turning to `COc1cc(-c2nc(Nc3ccc4[nH]ncc4c3)n[nH]2)ccc1OCC(=O)NC1CN(C(C)=O)C1` [Example 227, N-(1-acetylazetidin-3-yl)-2-[4-[5-(1H-indazol-5-ylamino)-4H-1,2,4-triazol-3-yl]-2-methoxy-phenoxy]acetamide], the IC50 lay in the range of 0.3 to 3 µM.

In the case of `NC1(COc2ccc(-c3nnc(Nc4ccc5[nH]ncc5c4)[nH]3)cc2)COC1` [Example 228, N-[5-[4-[(3-aminooxetan-3-yl)methoxy]phenyl]-4H-1,2,4-triazol-3-yl]-1H-indazol-5-amine], the IC50 fell in the range of 0.3 to 3 µM.

Turning to `CCNC1(COc2ccc(-c3nnc(Nc4ccc5[nH]ncc5c4)[nH]3)cc2)COC1` [Example 229, N-[5-[4-[[3-(ethylamino)oxetan-3-yl]methoxy]phenyl]-4H-1,2,4-triazol-3-yl]-1H-indazol-5-amine], the IC50 was 0.3 to 3 µM.

Regarding `CC(C)NCCOc1ccc(-c2n[nH]c(Nc3ccc4[nH]ncc4c3)n2)cc1` [Example 230, N-[5-[4-[2-(isopropylamino)ethoxy]phenyl]-4H-1,2,4-triazol-3-yl]-1H-indazol-5-amine], the IC50 was in the range of 0.3 to 3 µM.

Consider `COc1cc(-c2nc(Nc3ccc4[nH]ncc4c3)n(C)n2)ccc1COC(=O)NC1CCNC1` (centres unmarked) [Example 231, [4-[5-(1H-indazol-5-ylamino)-1-methyl-1,2,4-triazol-3-yl]-2-methoxy-phenyl]methyl N-pyrrolidin-3-ylcarbamate], for which the IC50 is < 0.3 µM.

For `COc1cc(-c2nc(Nc3ccc4[nH]ncc4c3)nn2C)ccc1OCC(=O)NC(C)C` [Example 232, 2-[4-[5-(1H-indazol-5-ylamino)-2-methyl-1,2,4-triazol-3-yl]-2-methoxy-phenoxy]-N-isopropyl-acetamide], the IC50 lay in the range of 0.3 to 3 µM.

`COc1cc(-c2nc(Nc3ccc4[nH]nc(C)c4c3)n(C)n2)ccc1OCC(=O)NC(C)C` [Example 233, N-isopropyl-2-[2-methoxy-4-[1-methyl-5-[(3-methyl-1H-indazol-5-yl)amino]-1,2,4-triazol-3-yl]phenoxy]acetamide]: the IC50 was < 0.3 µM.

`Cn1nc(-c2ccc3c(c2)OCCC3O)nc1Nc1ccc2[nH]ncc2c1Cl` (centres unmarked) [Example 234, 7-[5-[(4-chloro-1H-indazol-5-yl)amino]-1-methyl-1,2,4-triazol-3-yl]chroman-4-ol]: the IC50 lay in the range of 0.3 to 3 µM.
